From patent US20230210853A1 (Halia Therapeutics, Inc., priority 2020, published 2023)
Where two headings read alike, the source gives them in different places.

How the values were obtained:
[1] = target: T1, full-length recombinant human NEK7 (Homo sapiens, UniProt Q8TDX7); assay: NEK7 enzymatic assay ([33P]-ATP, casein substrate); type: biochemical
T1 construct: full-length recombinant human NEK7; GST (N); purchased SignalChem N09-10G; host or cells: Sf9 insect cells (baculovirus)
In short: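 Serially diluted compounds (10 μM down to 0.5 nM, 3-fold) were preincubated 20 min at room temperature with N-terminal GST-NEK7 from Sf9 cells and casein in pH 7.5 Hepes/MgCl2/EGTA/Brij35/DTT buffer containing 1% DMSO. [33P]-ATP then started a 2 h room-temperature reaction, stopped by spotting onto P81 paper. IC50 came from percent activity remaining versus vehicle.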

IL-1β release = IL-1β release assay (PMA-differentiated THP-1 cells, LPS + nigericin, cleaved IL-1β by JESS); type: cell-based; details: Homo sapiens
Description: (§1) Approximately 1.5 million THP-1 cells were plated in each well of a 6-well TC plate and incubated with 40 nM PMA in RPMI (10% FBS, 1% Penstrep) for 24 hours. The media was then removed and cells were rested in RPMI (10% FBS, 1% Penstrep) for 24 hours after which time the media was removed and cells were pre-treated for 2 hours with various concentrations of compounds of interest (typically serial 3-fold dilution in RPMI +5% FBS, concentrations ranging from 1 μM to 0.5 nM) in RPMI (5% FBS). The media was again removed and cells were incubated with 250 ng/mL LPS and compounds of interest (concentrations as above) in RMPI (5% FBS) for 2 hours. The media was removed for a last time and cells were incubated with 20 μM nigericin and compounds of interest (concentrations as above) in Opti-MEM for 30 minutes. Cell media was then collected and the amount of cleaved IL-1β was determined using a JESS instrument (Protein Simple) and standard protocols. Cleaved 1-PD antibody was obtained from Cell Signaling (catalogue #83186S) and was used at 1:20 dilution in antibody diluent 2. Protein Simple 1× anti-Rabbit HRP secondary antibody was used along with Protein Simple luminol and peroxide for chemiluminescent detection. Primary antibody incubation time was increased from 30 minutes to 60 minutes.
as §1, with “RPMI+5%” for “RPMI +5%”, “Il-1β” for “1-PD”

[2] = Table 2b, recombinant human NEK7, casein substrate
[3] = Table 2b, THP-1 cells, LPS + nigericin, read-out: Il-1β release IC50
[4] = Table 2d, recombinant human NEK7, casein substrate
[5] = 48 h, Table 2d, THP-1 cells, LPS + nigericin, read-out: IL-1β release IC50
[6] = Table 2e, recombinant human NEK7, casein substrate
[7] = Table 2e, THP-1 cells, LPS + nigericin, read-out: IL-1β release IC50
[8] = Table 2a, recombinant human NEK7, casein substrate
[9] = Table 2a, THP-1 cells, LPS + nigericin, read-out: II-1β release IC50
[10] = comparative compounds of Structure (II)
[11] = THP-1, comparative compounds of Structure (II), read-out: IL-1β release IC50

T1 sequence (Q8TDX7 whole entry): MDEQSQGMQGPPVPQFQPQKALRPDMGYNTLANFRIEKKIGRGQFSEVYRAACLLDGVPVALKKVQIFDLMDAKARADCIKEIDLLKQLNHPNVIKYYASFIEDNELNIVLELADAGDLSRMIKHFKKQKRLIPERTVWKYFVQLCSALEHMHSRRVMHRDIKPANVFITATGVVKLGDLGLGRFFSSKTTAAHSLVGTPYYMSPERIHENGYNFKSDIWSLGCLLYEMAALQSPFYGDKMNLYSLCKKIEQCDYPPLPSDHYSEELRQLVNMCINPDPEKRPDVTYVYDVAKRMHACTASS

Cc1cc2c(Oc3ccc(NC(=O)Nc4cc(C(C)(C)C)nn4-c4ccccc4)c(F)c3)ccnc2[nH]1 [Ib-5, 1-(3-(tert-butyl)-1-phenyl-1H-pyrazol-5-yl)-3-(2-fluoro-4-((2-methyl-1H-pyrrolo[2,3-b]pyridin-4-yl)oxy)phenyl)urea]
IC50 [1, 2]: > 1.5 µM
IC50 (IL-1β release; [3]): 0.151 to 0.3 µM

CN1CCN(Cc2ccc(NC(=O)Nc3ccc(-c4nn(C5CC5)c5ccnc(N)c45)cc3F)cc2C(F)(F)F)CC1 [Id-30, 1-(4-(4-amino-1-cyclopropyl-1H-pyrazolo[4,3-c]pyridin-3-yl)-2-fluorophenyl)-3-(4-((4-methylpiperazin-1-yl)methyl)-3-(trifluoromethyl)phenyl)urea]
IC50 [1, 4]: < 0.15 µM
IC50 (IL-1β release; [5]): < 0.15 µM

CCN1CCN(Cc2ccc(NC(=O)Nc3ccc(Oc4ccnc5[nH]cc(Cl)c45)cc3F)cc2C(F)(F)F)CC1 [Ie-9, 1-(4-((3-chloro-1H-pyrrolo[2,3-b]pyridin-4-yl)oxy)-2-fluorophenyl)-3-(4-((4-ethylpiperazin-1-yl)methyl)-3-(trifluoromethyl)phenyl)urea]
IC50 [1, 6]: 0.501 to 1.5 µM
IC50 (IL-1β release; [7]): < 0.15 µM

Nc1ncnc2c1c(-c1ccc(NC(=O)Nc3cc(C4(C(F)(F)F)CC4)on3)c(F)c1)nn2C1CC1 [Ia-25, 1-(4-(4-amino-1-cyclopropyl-1H-pyrazolo[3,4-d]pyrimidin-3-yl)-2-fluorophenyl)-3-(5-(1-(trifluoromethyl)cyclopropyl)isoxazol-3-yl)urea]
IC50 [1, 8]: < 0.15 µM
IC50 (IL-1β release; [9]): < 0.15 µM

Nc1nccc2c1c(-c1ccc(NC(=O)Nc3cc(C4(C(F)(F)F)CC4)no3)c(F)c1)nn2C1CC1 [Ia-45, 1-(4-(4-amino-1-cyclopropyl-1H-pyrazolo[4,3-c]pyridin-3-yl)-2-fluorophenyl)-3-(3-(1-(trifluoromethyl)cyclopropyl)isoxazol-5-yl)urea]
IC50 [1, 8]: 0.151 to 0.3 µM
IC50 (IL-1β release; [9]): 0.151 to 0.3 µM

Cc1[nH]c2nccc(Oc3ccc(NC(=O)Nc4cc(C(C)(C)C)nn4-c4ccccc4)c(F)c3)c2c1Cl [Ib-14]
IC50 [1, 2]: 0.501 to 1.5 µM
IC50 (IL-1β release; [3]): > 1 µM

CN1CCN(Cc2ccc(NC(=O)Nc3ccc(-c4nn(CC(C)(C)O)c5ncnc(N)c45)cc3F)cc2C(F)(F)F)CC1 [Id-28, 1-(4-(4-amino-1-(2-hydroxy-2-methylpropyl)-1H-pyrazolo[3,4-d]pyrimidin-3-yl)-2-fluorophenyl)-3-(4-((4-methylpiperazin-1-yl)methyl)-3-(trifluoromethyl)phenyl)urea]
IC50 [1, 4]: < 0.15 µM
IC50 (IL-1β release; [5]): < 0.15 µM

CC(C)(C)c1cc(NC(=O)Nc2c(F)cc(Oc3ccnc4[nH]cc(Cl)c34)cc2F)n(-c2ccccc2)n1 [Ib-8]
IC50 [1, 2]: > 1.5 µM
IC50 (IL-1β release; [3]): 0.301 to 0.5 µM

Nc1ncnc2c1c(-c1ccc3c(c1F)CCN3C(=O)Cc1cc(C(F)(F)F)ccc1F)cn2C1CC1 [II-17, 1-(5-(4-amino-7-cyclopropyl-7H-pyrrolo[2,3-d]pyrimidin-5-yl)-4-fluoroindolin-1-yl)-2-(2-fluoro-5-(trifluoromethyl)phenyl)ethan-1-one]
IC50 [1, 10]: < 0.15 µM
IC50 (IL-1β release; [11]): > 1 µM

CC(C)(C)c1cc(NC(=O)Nc2ccc(-c3nn(C4CC4)c4ncnc(N)c34)cc2F)on1 [Ia-13, 1-(4-(4-amino-1-cyclopropyl-1H-pyrazolo[3,4-d]pyrimidin-3-yl)-2-fluorophenyl)-3-(3-(tert-butyl)isoxazol-5-yl)urea]
IC50 [1, 8]: < 0.15 µM
IC50 (IL-1β release; [9]): < 0.15 µM

CN1CCC(Oc2ccc(NC(=O)Nc3ccc(Oc4ccnc5[nH]cc(Cl)c45)cc3F)cc2C(F)(F)F)CC1 [Ie-16, 1-(4-((3-chloro-1H-pyrrolo[2,3-b]pyridin-4-yl)oxy)-2-fluorophenyl)-3-(4-((1-methylpiperidin-4-yl)oxy)-3-(trifluoromethyl)phenyl)urea]
IC50 [1, 6]: 0.151 to 0.3 µM
IC50 (IL-1β release; [7]): < 0.15 µM

CC(C)(C)c1cc(NC(=O)Nc2ccc(Oc3ccnc4[nH]cc(C5CC5)c34)cc2F)n(-c2ccccc2)n1 [Ib-18, 1-(3-(tert-butyl)-1-phenyl-1H-pyrazol-5-yl)-3-(4-((3-cyclopropyl-1H-pyrrolo[2,3-b]pyridin-4-yl)oxy)-2-fluorophenyl)urea]
IC50 [1, 2]: 0.501 to 1.5 µM
IC50 (IL-1β release; [3]): < 0.15 µM

CC(C)n1nc(-c2ccc3c(c2F)CCN3C(=O)Cc2cc(C(F)(F)F)ccc2F)c2c(N)ncnc21 [II-11, 1-(5-(4-amino-1-isopropyl-1H-pyrazolo[3,4-d]pyrimidin-3-yl)-4-fluoroindolin-l-yl)-2-(2-fluoro-5-(trifluoromethyl)phenyl)ethan-1-one]
IC50 [1, 10]: < 0.15 µM
IC50 (IL-1β release; [11]): > 1 µM

Nc1ncnc2c1c(-c1ccc3c(c1F)CCN3C(=O)Cc1cc(C(F)(F)F)ccc1F)nn2C1COC1 [II-12, 1-(5-(4-amino-1-(oxetan-3-yl)-1H-pyrazolo[3,4-d]pyrimidin-3-yl)-4-fluoroindolin-1-yl)-2-(2-fluoro-5-(trifluoromethyl)phenyl)ethan-1-one]
IC50 [1, 10]: < 0.15 µM
IC50 (IL-1β release; [11]): > 1 µM

CC(C)(C)c1cc(NC(=O)Nc2ccc(-c3nn(C4COC4)c4ncnc(N)c34)cc2F)on1 [Ia-12, 1-(4-(4-amino-1-(oxetan-3-yl)-1H-pyrazolo[3,4-d]pyrimidin-3-yl)-2-fluorophenyl)-3-(3-(tert-butyl)isoxazol-5-yl)urea]
IC50 [1, 8]: < 0.15 µM
IC50 (IL-1β release; [9]): < 0.15 µM

CC(C)(C)c1cc(NC(=O)Nc2ccc(-c3nn(C4CC4)c4ccnc(N)c34)cc2F)on1 [Ia-30, 1-(4-(4-amino-1-cyclopropyl-1H-pyrazolo[4,3-c]pyridin-3-yl)-2-fluorophenyl)-3-(3-(tert-butyl)isoxazol-5-yl)urea]
IC50 [1, 8]: < 0.15 µM
IC50 (IL-1β release; [9]): < 0.15 µM

CN1CCN(Cc2ccc(NC(=O)Nc3ccc(-c4nn(C5CC5)c5ncnc(N)c45)cc3F)cc2F)CC1 [Id-27, 1-(4-(4-amino-1-cyclopropyl-1H-pyrazolo[3,4-d]pyrimidin-3-yl)-2-fluorophenyl)-3-(3-fluoro-4-((4-methylpiperazin-1-yl)methyl)phenyl)urea]
IC50 [1, 4]: < 0.15 µM
IC50 (IL-1β release; [5]): < 0.15 µM

Cc1c[nH]c2nccc(Oc3ccc(NC(=O)Nc4cc(C(C)(C)C)nn4-c4ccccc4)c(F)c3)c12 [Ib-4, 1-(3-(tert-butyl)-1-phenyl-1H-pyrazol-5-yl)-3-(2-fluoro-4-((3-methyl-1H-pyrrolo[2,3-b]pyridin-4-yl)oxy)phenyl)urea]
IC50 [1, 2]: 0.501 to 1.5 µM
IC50 (IL-1β release; [3]): < 0.15 µM

CC1(c2cc(NC(=O)Nc3ccc(-c4nn(C5CC5)c5ncnc(N)c45)cc3F)on2)CC1 [Ia-32, 1-(4-(4-amino-1-cyclopropyl-1H-pyrazolo[3,4-d]pyrimidin-3-yl)-2-fluorophenyl)-3-(3-(1-methylcyclopropyl)isoxazol-5-yl)urea]
IC50 [1, 8]: < 0.15 µM
IC50 (IL-1β release; [9]): 0.151 to 0.3 µM

CN1CCN(Cc2ccc(NC(=O)Nc3ccc(Oc4ccnc5[nH]cc(Cl)c45)cc3F)cc2C(F)(F)F)CC1 [Ie-1, 1-(4-((3-chloro-1H-pyrrolo[2,3-b]pyridin-4-yl)oxy)-2-fluorophenyl)-3-(4-((4-methylpiperazin-1-yl)methyl)-3-(trifluoromethyl)phenyl)urea]
IC50 [1, 6]: 0.151 to 0.3 µM
IC50 (IL-1β release; [7]): < 0.15 µM

CN1CCN(C(=O)c2ccc(NC(=O)Nc3ccc(-c4nn(C5CC5)c5ncnc(N)c45)cc3F)cc2C(F)(F)F)CC1 [Id-48]
IC50 [1, 4]: 0.151 to 0.3 µM
IC50 (IL-1β release; [5]): > 1 µM

CC(C)(C)c1cc(NC(=O)Nc2ccc(-c3nn(C4CCN(C5COC5)CC4)c4ncnc(N)c34)cc2F)on1 [Ia-14, 1-(4-(4-amino-1-(1-(oxetan-3-yl)piperidin-4-yl)-1H-pyrazolo[3,4-d]pyrimidin-3-yl)-2-fluorophenyl)-3-(3-(tert-butyl)isoxazol-5-yl)urea]
IC50 [1, 8]: < 0.15 µM
IC50 (IL-1β release; [9]): < 0.15 µM

Nc1ncnc2c1c(-c1ccc(NC(=O)Nc3cc(C4(C(F)(F)F)CC4)no3)c(F)c1)nn2C1CC1 [Ia-21]
IC50 [1, 8]: < 0.15 µM
IC50 (IL-1β release; [9]): < 0.15 µM
